Source: US6518243B1, “Desleucyl glycopeptide antibiotics and methods of making same” (Trustees of Princeton University, priority 1999, dated 2003)

Columns and labels:
Experiment in all cases: Zone of inhibition screen, 96 well agar array format
Type in all cases: cell-based
Set-up in all cases: scale not given here
S. aureus (ATCC 29213) = tested on: S. aureus (ATCC 29213)
Procedure, shortened: (§1)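 Panel screening of every compound against several bacterial strains, among them E. faecium ATCC 49624, was done in a 96-well agar array.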

[1] = tested on: S. epidermidis (ATCC 12228)
Procedure, shortened: as §1

E. faecalis (CL 4877) = tested on: E. faecalis (CL 4877)
Procedure, shortened: as §1

[2] = zone of inhibition relative to 1 mg/ml p-chlorobiphenylvancomycin
[3] = zone of inhibition relative to 1 mg/ml stock solution of p-chlorobiphenylvancomycin

CCC(O)C(=O)NC1C(=O)NC(CC(N)=O)C(=O)NC2C(=O)NC3C(=O)NC(C(=O)NC(C(=O)O)c4cc(O)cc(O)c4-c4cc3ccc4O)C(O)c3ccc(c(Cl)c3)Oc3cc2cc(c3OC2OC(CO)C(O)C(O)C2OC2CC(C)(NCc3ccc(-c4ccc(Cl)cc4)cc3)C(O)C(C)O2)Oc2ccc(cc2Cl)C1O (mixture of isomers) [Compound 286]
2: zone score, S. aureus ATCC 29213 (S. aureus (ATCC 29213); [2]) | zone score, S. epidermidis ATCC 12228 [1, 2] | zone score, E. faecalis CL 4877 (E. faecalis (CL 4877); [2])

CC1OC(OC2C(Oc3c4cc5cc3Oc3ccc(cc3Cl)C(O)C3NC(=O)C(NC(=O)C5NC(=O)C(CC(N)=O)NC(=O)C(NC(=O)C5CC(O)CN5)C(O)c5ccc(c(Cl)c5)O4)c4ccc(O)c(c4)-c4c(O)cc(O)cc4C(C(=O)O)NC3=O)OC(CO)C(O)C2O)CC(C)(NCc2ccc(-c3ccc(Cl)cc3)cc2)C1O (stereo not drawn) [Compound 54]
2: zone score, S. aureus ATCC 29213 (S. aureus (ATCC 29213); [3]) | zone score, S. epidermidis ATCC 12228 [1, 3] | zone score, E. faecalis CL 4877 (E. faecalis (CL 4877); [3])

CC(=O)N1CCC[C@H]1C(=O)N[C@H]1C(=O)N[C@@H](CC(N)=O)C(=O)N[C@H]2C(=O)NC3C(=O)N[C@H](C(=O)N[C@@H](C(=O)O)c4cc(O)cc(O)c4-c4cc3ccc4O)[C@H](O)c3ccc(c(Cl)c3)Oc3cc2cc(c3OC2OC(CO)C(O)C(O)C2OC2CC(C)(NCc3ccc(-c4ccc(Cl)cc4)cc3)C(O)C(C)O2)Oc2ccc(cc2Cl)[C@H]1O (stereo partly drawn) [Compound 183]
2: zone score, S. aureus ATCC 29213 (S. aureus (ATCC 29213); [3]) | zone score, S. epidermidis ATCC 12228 [1, 3] | zone score, E. faecalis CL 4877 (E. faecalis (CL 4877); [3])

CC(=O)C(=O)NC1C(=O)NC(CC(N)=O)C(=O)NC2C(=O)NC3C(=O)NC(C(=O)NC(C(=O)O)c4cc(O)cc(O)c4-c4cc3ccc4O)C(O)c3ccc(c(Cl)c3)Oc3cc2cc(c3OC2OC(CO)C(O)C(O)C2OC2CC(C)(NCc3ccc(-c4ccc(Cl)cc4)cc3)C(O)C(C)O2)Oc2ccc(cc2Cl)C1O (stereo not drawn) [Compound 314]
2: zone score, S. aureus ATCC 29213 (S. aureus (ATCC 29213); [2]) | zone score, S. epidermidis ATCC 12228 [1, 2] | zone score, E. faecalis CL 4877 (E. faecalis (CL 4877); [2])

COc1ccc(CCC(=O)NC2C(=O)NC(CC(N)=O)C(=O)NC3C(=O)NC4C(=O)NC(C(=O)NC(C(=O)O)c5cc(O)cc(O)c5-c5cc4ccc5O)C(O)c4ccc(c(Cl)c4)Oc4cc3cc(c4OC3OC(CO)C(O)C(O)C3OC3CC(C)(NCc4ccc(-c5ccc(Cl)cc5)cc4)C(O)C(C)O3)Oc3ccc(cc3Cl)C2O)cc1OC (stereo not drawn) [Compound 245]
2: zone score, S. aureus ATCC 29213 (S. aureus (ATCC 29213); [2]) | zone score, S. epidermidis ATCC 12228 [1, 2] | zone score, E. faecalis CL 4877 (E. faecalis (CL 4877); [2])

CC1OC(OC2C(Oc3c4cc5cc3Oc3ccc(cc3Cl)C(O)C3NC(=O)C(NC(=O)C5NC(=O)C(CC(N)=O)NC(=O)C(NC(=O)CNC(=O)CNC(=O)CCNC(=O)OCc5ccccc5)C(O)c5ccc(c(Cl)c5)O4)c4ccc(O)c(c4)-c4c(O)cc(O)cc4C(C(=O)O)NC3=O)OC(CO)C(O)C2O)CC(C)(NCc2ccc(-c3ccc(Cl)cc3)cc2)C1O (stereo not drawn) [Compound 210]
2: zone score, S. aureus ATCC 29213 (S. aureus (ATCC 29213); [2]) | zone score, S. epidermidis ATCC 12228 [1, 2] | zone score, E. faecalis CL 4877 (E. faecalis (CL 4877); [2])

COc1cc(OC)c(CNC(=O)CCC(N)C(=O)NC2C(=O)NC(CC(N)=O)C(=O)NC3C(=O)NC4C(=O)NC(C(=O)NC(C(=O)O)c5cc(O)cc(O)c5-c5cc4ccc5O)C(O)c4ccc(c(Cl)c4)Oc4cc3cc(c4OC3OC(CO)C(O)C(O)C3OC3CC(C)(NCc4ccc(-c5ccc(Cl)cc5)cc4)C(O)C(C)O3)Oc3ccc(cc3Cl)C2O)c(OC)c1 (stereo not drawn) [Compound 66]
2: zone score, S. aureus ATCC 29213 (S. aureus (ATCC 29213); [3]) | zone score, S. epidermidis ATCC 12228 [1, 3] | zone score, E. faecalis CL 4877 (E. faecalis (CL 4877); [3])

CC(N)C(=O)NC(C)C(=O)NC1C(=O)NC(CC(N)=O)C(=O)NC2C(=O)NC3C(=O)NC(C(=O)NC(C(=O)O)c4cc(O)cc(O)c4-c4cc3ccc4O)C(O)c3ccc(c(Cl)c3)Oc3cc2cc(c3OC2OC(CO)C(O)C(O)C2OC2CC(C)(NCc3ccc(-c4ccc(Cl)cc4)cc3)C(O)C(C)O2)Oc2ccc(cc2Cl)C1O (stereo not drawn) [Compound 35]
2: zone score, S. aureus ATCC 29213 (S. aureus (ATCC 29213); [3]) | zone score, S. epidermidis ATCC 12228 [1, 3] | zone score, E. faecalis CL 4877 (E. faecalis (CL 4877); [3])

CC1OC(OC2C(Oc3c4cc5cc3Oc3ccc(cc3Cl)C(O)C3NC(=O)C(NC(=O)C5NC(=O)C(CC(N)=O)NC(=O)C(NC(=O)c5ccc(S(N)(=O)=O)cc5)C(O)c5ccc(c(Cl)c5)O4)c4ccc(O)c(c4)-c4c(O)cc(O)cc4C(C(=O)O)NC3=O)OC(CO)C(O)C2O)CC(C)(NCc2ccc(-c3ccc(Cl)cc3)cc2)C1O (stereo not drawn) [Compound 269]
2: zone score, S. aureus ATCC 29213 (S. aureus (ATCC 29213); [2]) | zone score, S. epidermidis ATCC 12228 [1, 2] | zone score, E. faecalis CL 4877 (E. faecalis (CL 4877); [2])

CC1OC(OC2C(Oc3c4cc5cc3Oc3ccc(cc3Cl)C(O)C3NC(=O)C(NC(=O)C5NC(=O)C(CC(N)=O)NC(=O)C(NC(=O)CCO)C(O)c5ccc(c(Cl)c5)O4)c4ccc(O)c(c4)-c4c(O)cc(O)cc4C(C(=O)O)NC3=O)OC(CO)C(O)C2O)CC(C)(NCc2ccc(-c3ccc(Cl)cc3)cc2)C1O (stereo not drawn) [Compound 106]
2: zone score, S. aureus ATCC 29213 (S. aureus (ATCC 29213); [3]) | zone score, S. epidermidis ATCC 12228 [1, 3] | zone score, E. faecalis CL 4877 (E. faecalis (CL 4877); [3])
